Here are results for 30 molecules from patent US20230150924A1, “NOVEL COMPOUND HAVING CANCER METASTASIS INHIBITORY ACTIVITY, PREPARATION METHOD THEREFOR, AND PHARMACEUTICAL COMPOSITION FOR INHIBITING CANCER METASTASIS AND INVASION OR TREATING COLORECTAL CANCER, COMPRISING COMPOUND” (CELLGENTEK CO., LTD., priority 2019, published 2023).

Test [1] relates to KAI1 promoter. Nature of the test: KAI1 promoter luciferase reporter assay in transfected Caco2 cells. Format: cell-based, human. Particulars: Homo sapiens, Caco-2, 16 h, 1 μM compound, 16 hours, transfected Caco2 cells, luciferase activity relative to DMSO control (=1); read-out: Relative KAI promoter activity. The method, then: Experiments were conducted to evaluate the metastasis-related promoter activity-increasing effects of the compounds according to the present invention. Specifically, the KAI1 promoter reporter vector was used. In this case, the pRL-TK vector, a vector expressing renilla luciferase, was used as an internal control indicating the transfection efficiency in each transfected well.
First, 24 hours before transfection, 2×10^6 human colon cancer cell line, Caco2) cells were cultured in 10 ml of DMEM containing 10% FBS and 1% penicillin/streptomycin on a 100-mm-diameter plate, and then transformed with 5 μg of a pRL-TK vector mixture containing a transfection reagent and the KAI1 promoter, and then cultured in a 5% CO2 incubator at 37° C. for 48 hours. Thereafter, the adherent cells were detached using trypsin and counted using a hemacytometer, and then 5×10^3 transfected Caco2 cells in 100 μl of DMEM containing 10% FBS and 1% penicillin/streptomycin were seeded into each well of a 96-well plate and cultured in a 5% CO2 incubator at 37° C. for 24 hours. Next, 1 μM of each of the 305 compounds prepared in Examples 1 to 305 was added to each well, and after 16 hours, 100 μl of a lysis buffer for analysis containing a luciferase substrate was added, and the cells were lysed with stirring for 20 minutes. After completion of lysis, the cells were measured for luciferase activity using a luciferase reporter assay system (Promega, USA). […] In addition, data were analyzed at a significance level of p<0.05 by one-way ANOVA (Tukey's HSD), and SPSS 17.0 (Chicago, USA) statistical program was used. In Table 14 to 20, PHA is the PHA-665752, and KIT is KITENIN.
In general terms: Reporter assays use an easily measured gene product as a stand-in for the process of interest.

In test [2] the test system is invasion of colorectal cancer cells. Nature of the test: In vivo relative invation (invasion; EV and KITENIN controls, no method described). Particulars: relative to EV (=1); KIT = KITENIN.

For `O=C(CNC(=O)c1cccc(C(F)(F)F)c1)c1ccccc1` [Example 31, N-(2-oxo-2-phenylethyl)-3-(trifluoromethyl)benzamide], the fold induction at 1 µM in test [1] was determined as 1.18. In addition, in test [2], the “In vivo relative invation” value is on record as 0.8211.

Take `O=C(CNC(=O)c1ccc(C(F)(F)F)cc1)c1ccccc1` [Example 32, N-(2-oxo-2-phenylethyl)-4-(trifluoromethyl)benzamide]: the fold induction at 1 µM in test [1] is 1.02. For the same molecule, the “In vivo relative invation” value in test [2] was found to be 1.383.

On to `O=C(CNC(=O)c1ccc(F)cc1Cl)c1ccccc1` [Example 33, 2-chloro-4-fluoro-N-(2-oxo-2-phenylethyl)benzamide], for which the fold induction at 1 µM in test [1] is 1.78. Also, the “In vivo relative invation” value in test [2] is reported as 0.7513.

Regarding `O=C(CNC(=O)c1cccc([N+](=O)[O-])c1)c1ccccc1` [Example 34, 3-nitro-N-(2-oxo-2-phenylethyl)benzamide], the fold induction at 1 µM in test [1] came out at 1.34. Besides, the “In vivo relative invation” value in test [2] is 1.103.

`O=C(CNC(=O)c1ccc(F)c(F)c1)c1ccccc1` [Example 35, 3,4-difluoro-N-(2-oxo-2-phenylethyl)benzamide]: in test [1], the fold induction at 1 µM came out at 1.28. In addition, the “In vivo relative invation” value in test [2] turned out to be 0.8811.

With `O=C(CNC(=O)c1cc(Cl)cc(Cl)c1)c1ccccc1` [Example 36, 3,5-dichloro-N-(2-oxo-2-phenylethyl)benzamide], the fold induction at 1 µM in test [1] was found to be 1.16. Moreover, the “In vivo relative invation” value in test [2] is reported as 1.056.

As for `O=C(CNC(=O)c1cccc(Cl)c1Cl)c1ccccc1` [Example 37, 2,3-dichloro-N-(2-oxo-2-phenylethyl)benzamide], the fold induction at 1 µM in test [1] was 1.17. For the same molecule, the “In vivo relative invation” value in test [2] turned out to be 0.9648.

Regarding `O=C(CNC(=O)c1ccc(OC(F)(F)F)cc1)c1ccccc1` [Example 38, N-(2-oxo-2-phenylethyl)-4-(trifluoromethoxy)benzamide], the fold induction at 1 µM in test [1] worked out at 1.57. In test [2], the “In vivo relative invation” value is 1.119.

As for `O=C(CNC(=O)c1cccc(OC(F)(F)F)c1)c1ccccc1` [Example 39, N-(2-oxo-2-phenylethyl)-3-(trifluoromethoxy)benzamide], in test [1], the fold induction at 1 µM turned out to be 1.21. Moreover, the “In vivo relative invation” value in test [2] was 0.5984.

Take `Cc1cc(C)cc(C(=O)NCC(=O)c2ccccc2)c1` [Example 40, 3,5=dimethyl-N-(2-oxo-2-phenylethyl)benzamide]: the fold induction at 1 µM in test [1] worked out at 1. Moreover, the “In vivo relative invation” value in test [2] is reported as 1.173.

With `O=C(CNC(=O)c1ccccc1OC(F)(F)F)c1ccccc1` [Example 41, N-(2-oxo-2-phenylethyl)-2-(trifluoromethoxy)benzamide], in test [1], the fold induction at 1 µM came to 1.19. For the same molecule, the “In vivo relative invation” value in test [2] amounted to 0.7565.

Regarding `COc1cc(OC)cc(C(=O)NCC(=O)c2ccccc2)c1` [Example 42, 3,5-dimethoxy-N-(2-oxo-2-phenylethyl)benzamide], the fold induction at 1 µM in test [1] came out at 1.12. Moreover, in test [2], the “In vivo relative invation” value was 1.525.

Regarding `O=C(CNC(=O)c1ccc(-c2ccccc2)cc1)c1ccccc1` [Example 43, N-(2-oxo-2-phenylethyl)-[1,1′-biphenyl]-4-carboxamide], the fold induction at 1 µM in test [1] is 1.91. For the same molecule, the “In vivo relative invation” value in test [2] is 0.9774.

With `O=C(CNC(=O)c1ccccc1F)c1ccc(Cl)cc1` [Example 44, N-(2-(4-chlorophenyl)-2-oxoethyl)-2-fluorobenzamide], in test [1], the fold induction at 1 µM came out at 0.98. The “In vivo relative invation” value in test [2] was 0.9752.

Take `O=C(CNC(=O)c1ccc(F)cc1)c1ccc(Cl)cc1` [Example 45, N-(2-(4-chlorophenyl)-2-oxoethyl)-4-fluorobenzamide]: in test [1], the fold induction at 1 µM came to 0.84. Moreover, the “In vivo relative invation” value in test [2] came out at 1.476.

`O=C(CNC(=O)c1ccco1)c1ccc(Cl)cc1` [Example 46, N-(2-(4-chlorophenyl)-2-oxoethyl)furan-2-carboxamide]: in test [1], the fold induction at 1 µM was 0.98. For the same molecule, in test [2], the “In vivo relative invation” value turned out to be 1.181.

As for `O=C(CNC(=O)c1cccc(Cl)c1)c1ccc(Cl)cc1` [Example 47, 3-chloro-N-(2-(4-chlorophenyl)-2-oxoethyl)benzamide], the fold induction at 1 µM in test [1] stood at 0.76. Further, in test [2], the “In vivo relative invation” value is listed as 0.9038.

In the case of `C/C=C/C(=O)NCC(=O)c1ccc(Cl)cc1` [Example 48, (E)-N-(2-(4-chlorophenyl)-2-oxoethyl)but-2-enamide], the fold induction at 1 µM in test [1] stood at 0.85. Moreover, in test [2], the “In vivo relative invation” value was 1.19.

`O=C(CCc1ccccc1)NCC(=O)c1ccc(Cl)cc1` [Example 49, N-(2-(4-chlorophenyl)-2-oxoethyl)-3-phenylpropanamide]: in test [1], the fold induction at 1 µM came to 0.7. Besides, the “In vivo relative invation” value in test [2] worked out at 1.197.

With `C=CC(=O)NCC(=O)c1ccc(Cl)cc1` [Example 50, N-(2-(4-chlorophenyl)-2-oxoethyl)acrylamide], the fold induction at 1 µM in test [1] came to 0.94. Moreover, in test [2], the “In vivo relative invation” value is 1.089.

`Cc1ccccc1C(=O)NCC(=O)c1ccc(Cl)cc1` [Example 51, N-(2-(4-chlorophenyl)-2-oxoethyl)-2-methylbenzamide]: the fold induction at 1 µM in test [1] was 1.81. Also, the “In vivo relative invation” value in test [2] turned out to be 1.513.

With `COc1ccc(C(=O)NCC(=O)c2ccc(Cl)cc2)cc1` [Example 52, N-(2-(4-chlorophenyl)-2-oxoethyl)-4-methoxybenzamide], the fold induction at 1 µM in test [1] is 1.36. In addition, the “In vivo relative invation” value in test [2] worked out at 1.158.

For the molecule `Cc1cccc(C(=O)NCC(=O)c2ccc(Cl)cc2)c1` [Example 53, N-(2-(4-chlorophenyl)-2-oxoethyl)-3-methylbenzamide], the fold induction at 1 µM in test [1] was 2.02. Moreover, the “In vivo relative invation” value in test [2] turned out to be 0.9411.

For `CCC(=O)NCC(=O)c1ccc(Cl)cc1` [Example 54, N-(2-(4-chlorophenyl)-2-oxoethyl) propionamide], the fold induction at 1 µM in test [1] was determined as 0.7. In addition, the “In vivo relative invation” value in test [2] was found to be 1.083.

As for `O=C(CNC(=O)C1CCCCC1)c1ccc(Cl)cc1` [Example 55, N-(2-(4-chlorophenyl)-2-oxoethyl)cyclohexanecarboxamide], the fold induction at 1 µM in test [1] was found to be 0.67. Further, the “In vivo relative invation” value in test [2] came out at 1.179.

As to `O=C(CNC(=O)C1CC1)c1ccc(Cl)cc1` [Example 56, N-(2-(4-chlorophenyl)-2-oxoethyl)cyclopropanecarboxamide], the fold induction at 1 µM in test [1] is 0.92. The “In vivo relative invation” value in test [2] is 1.249.

With `O=C(CNC(=O)C1CCC1)c1ccc(Cl)cc1` [Example 57, N-(2-(4-chlorophenyl)-2-oxoethyl)cyclobutanecarboxamide], in test [1], the fold induction at 1 µM was 0.94. Further, the “In vivo relative invation” value in test [2] was found to be 1.217.

In the case of `O=C(CNC(=O)c1cccs1)c1ccc(Cl)cc1` [Example 58, N-(2-(4-chlorophenyl)-2-oxoethyl)thiophene-2-carboxamide], the fold induction at 1 µM in test [1] is 0.91. Further, the “In vivo relative invation” value in test [2] is listed as 1.244.

Consider `COCc1ccccc1C(=O)NCC(=O)c1ccc(Cl)cc1` [Example 59, N-(2-(4-chlorophenyl)-2-oxoethyl)-2-(methoxymethyl)benzamide], for which the fold induction at 1 µM in test [1] was determined as 1.56. For the same molecule, the “In vivo relative invation” value in test [2] was determined as 1.007.

As for `CC(C)(C)CC(=O)NCC(=O)c1ccc(Cl)cc1` [Example 60, N-(2-(4-chlorophenyl)-2-oxoethyl)-3,3-dimethylbutanamide], in test [1], the fold induction at 1 µM was determined as 0.81. Further, the “In vivo relative invation” value in test [2] stood at 0.9713.
